Assay [1] in a line: Hydrogen peroxide scavenging activity (colorimetric). Further details: key: ---: no activity. Particulars: mean ± SD, triplicate. On the procedure: The scavenging hydrogen peroxide was evaluated by a colorimetric assay according to Gupta and Sharma. […] Tests were carried out in triplicate.
A short description of assay [2]: Nitric oxide free radical scavenging activity (sodium nitroprusside). Further details: key to Half Maximal Inhibitory Concentration IC50 NO.: ---: no activity. Particulars: for nitric oxide radical scavenging activity: at the concentrations permitted to evaluate, Figure 3C; for Half Maximal Inhibitory Concentration IC50 NO.: mean ± SD, triplicate. On the procedure:
The essential oil NO scavenging activity was estimated using the protocol described by El Guendouz et al. The inhibition percentage was calculated using the formula: Inhibition = [(A0 − (A1 − A2)/A0 × 100]. The A0 is the absorbance of sodium nitroprusside without sample, A1 and A2 were the absorbance of the sample with and without sodium nitroprusside.

Assay [3] has as its target α-glucosidase (Saccharomyces cerevisiae, UniProt P53341). Description: α-Glucosidase inhibition assay. Particulars: mean ± SD, triplicate. The format is biochemical. On the procedure: The α-glucosidase inhibitor capacity of the essential oils was determined as described by El-Guendouz et al. The crease of absorbance was performed at 405 nm. The inhibition percentage of the enzyme was calculated as follows: I% = [(A0 −A1)/A0) × 100]; where A0 is the absorbance of the control and A1 is the absorbance of the sample. The trials were triplicated.

For assay [4], the target named is 5-lipoxygenase (Glycine max, UniProt P08170). The assay can be described thus: Lipoxygenase inhibition assay (linoleic acid substrate). The format is biochemical. On the procedure:
The 5-lipoxygenase assay was carried out according to the method described by El Guendouz et al. The following formula was used to determine the percentage of inhibition action: Inhibition = [(A0 − A1)/A0) × 100]; where A0 is the absorbance of the control and A1 is the absorbance of the sample.

Assay [5] has as its system tyrosinase. Description: Tyrosinase inhibition assay (L-DOPA oxidation). Further details: inhibition: dose or concentration left out as unconfirmed. Format: biochemical. Particulars: Figure 4C; read-out: tyrosinase inhibition percentage, major terpenes. On the procedure: (§1) The tyrosinase inhibition was carried out by the tyrosinase-dependent L-3,4-dihydroxyphenylalanine (L-DOPA) oxidation assay as previously described. The following formula was used to determine the percentage of inhibition action: Inhibition = [(A0 − A1)/A0) × 100]; with A0 as the absorbance of the control and A1 as the absorbance of the sample.

For assay [6], the target named is T1, acetylcholinesterase (Homo sapiens, UniProt P22303). Particulars: cited from earlier work.
T1 sequence (P22303 32-614, species assumed): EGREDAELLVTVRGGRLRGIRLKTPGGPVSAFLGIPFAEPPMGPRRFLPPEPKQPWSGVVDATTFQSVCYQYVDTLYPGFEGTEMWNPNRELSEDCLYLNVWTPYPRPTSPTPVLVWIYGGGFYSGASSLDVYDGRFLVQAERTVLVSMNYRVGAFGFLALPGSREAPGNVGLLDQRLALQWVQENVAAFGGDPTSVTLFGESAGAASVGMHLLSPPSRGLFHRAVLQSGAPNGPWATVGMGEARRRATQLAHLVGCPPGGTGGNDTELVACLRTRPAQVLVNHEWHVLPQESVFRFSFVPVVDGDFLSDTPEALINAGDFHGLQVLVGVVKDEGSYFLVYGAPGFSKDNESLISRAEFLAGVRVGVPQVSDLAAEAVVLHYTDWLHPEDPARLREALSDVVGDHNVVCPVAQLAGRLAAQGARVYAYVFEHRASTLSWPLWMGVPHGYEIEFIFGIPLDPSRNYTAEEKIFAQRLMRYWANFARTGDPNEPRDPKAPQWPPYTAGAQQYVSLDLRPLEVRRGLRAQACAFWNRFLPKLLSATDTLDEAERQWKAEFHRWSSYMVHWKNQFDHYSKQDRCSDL
Assay [7] deals with S. aureus ATCC 6538. Description: Agar disc diffusion. The format is cell-based, Staphylococcus aureus. The note with it: 5 µL per 6 mm disc, 24 h, diameter including disc, chloramphenicol 30 μg/mL. On the procedure:
(§2) The Gram negative bacterium Escherichia coli DSM 1077, and the Gram positive Staphylococcus aureus ATCC 6538 and the methicillin-resistant S. aureus 15 (MRSA 15) were used in the present study. The bacterial strains were recovered from −80 °C in the culture medium Brain Heart Infusion (BHI, Oxoid, Basingstock, UK), when required agar (VWR, Radnor, Philadelphia, PA, USA) at 1.5% w/v.
(§3) The bacterial susceptibility to the combinations Ro:La:Ca at ratio 1:1:1, Ro:La:Ca at ratio 2/3:1/6:16, Ro:La:Ca at ratio 1/6:2/3:16, Ro:La:Ca at ratio 1/6:1/6:2/3, and the components linalool, 1,8 cineole, and camphor, were performed by the agar disc diffusion technique as previously described. Briefly, 100 µL of the bacterial suspension at an OD600nm 0.3–0.4 was inoculated in BHI agar, and sterile discs (∅ 6 mm) were distributed over the surface. A volume of 5 µL of each EO and the individual components 1,8-cineole (52.62 mg/mL), and linalool (16.13 mg/mL), were deposited in the center of each disc. The plates were incubated for 24 h. The diameter of the inhibition zone including the disc was measured. The assay was performed in triplicate (n = 6).
(Agar diffusion results depend on both activity and mobility in agar.)

The subject of assay [8] is methicillin-resistant S. aureus 15 (MRSA 15). The assay can be described thus: Agar disc diffusion. Format: cell-based, Staphylococcus aureus. Particulars: 5 µL per 6 mm disc, 24 h, diameter including disc, chloramphenicol 30 μg/mL. On the procedure:
as §2, §3

The subject of assay [9] is E. coli DSM 1077. Description: Agar disc diffusion. Format: cell-based, Escherichia coli. The note with it: 5 µL per 6 mm disc, 24 h, diameter including disc, chloramphenicol 30 μg/mL. How it is done:
as §2, §3

Assay [10] addresses T1, acetylcholinesterase. Description: biochemical. The format is biochemical. How it is done:
The inhibitory activity of the essential oils on acetylcholinesterase was evaluated according to the method previously described. The following formula was used to determine the percentage of inhibition action: Inhibition = [(A0 − A1)/A0) × 100]; where A0 is the absorbance of the control and A1 is the absorbance of the sample.

In assay [11] the target is T2, tyrosinase (Homo sapiens, UniProt P14679).
T2 sequence (P14679 19-529): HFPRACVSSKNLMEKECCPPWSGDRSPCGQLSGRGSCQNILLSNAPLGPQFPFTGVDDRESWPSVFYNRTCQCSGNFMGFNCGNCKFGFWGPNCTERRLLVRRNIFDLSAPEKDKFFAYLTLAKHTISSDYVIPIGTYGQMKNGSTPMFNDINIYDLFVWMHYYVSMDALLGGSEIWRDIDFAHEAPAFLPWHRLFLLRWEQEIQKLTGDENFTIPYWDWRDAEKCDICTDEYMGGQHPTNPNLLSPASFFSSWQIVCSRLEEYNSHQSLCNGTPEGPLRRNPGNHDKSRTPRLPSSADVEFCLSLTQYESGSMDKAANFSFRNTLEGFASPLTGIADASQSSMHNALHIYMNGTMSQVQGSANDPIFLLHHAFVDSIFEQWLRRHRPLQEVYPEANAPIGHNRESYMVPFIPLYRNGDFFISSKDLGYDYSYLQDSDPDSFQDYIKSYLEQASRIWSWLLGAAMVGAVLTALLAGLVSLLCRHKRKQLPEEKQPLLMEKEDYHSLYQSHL
The assay can be described thus: Tyrosinase inhibition assay (L-DOPA oxidation). The format is biochemical. Further details: inhibition: dose or concentration left out as unconfirmed. Particulars: 50 mg/mL; Figure 4C. How it is done: as §1

Assay [12] in a line: Superoxide anion radical scavenging (nonenzymatic PMS-NADH system). Further details: key: ---: no activity. Particulars: mean ± SD, triplicate. How it is done: Superoxide anion free radical inhibition ability was evaluated using a nonenzymatic PMS-NADH (phenazine methosulfate–nicotinamide adenine dinucleotide) system as previously reported. The inhibition quantification was performed as aforementioned.

Where two headings read alike, the source gives them in different places. Marks after values point to notes of the source that are not given here.

Chain of 5-lipoxygenase (P08170 whole entry): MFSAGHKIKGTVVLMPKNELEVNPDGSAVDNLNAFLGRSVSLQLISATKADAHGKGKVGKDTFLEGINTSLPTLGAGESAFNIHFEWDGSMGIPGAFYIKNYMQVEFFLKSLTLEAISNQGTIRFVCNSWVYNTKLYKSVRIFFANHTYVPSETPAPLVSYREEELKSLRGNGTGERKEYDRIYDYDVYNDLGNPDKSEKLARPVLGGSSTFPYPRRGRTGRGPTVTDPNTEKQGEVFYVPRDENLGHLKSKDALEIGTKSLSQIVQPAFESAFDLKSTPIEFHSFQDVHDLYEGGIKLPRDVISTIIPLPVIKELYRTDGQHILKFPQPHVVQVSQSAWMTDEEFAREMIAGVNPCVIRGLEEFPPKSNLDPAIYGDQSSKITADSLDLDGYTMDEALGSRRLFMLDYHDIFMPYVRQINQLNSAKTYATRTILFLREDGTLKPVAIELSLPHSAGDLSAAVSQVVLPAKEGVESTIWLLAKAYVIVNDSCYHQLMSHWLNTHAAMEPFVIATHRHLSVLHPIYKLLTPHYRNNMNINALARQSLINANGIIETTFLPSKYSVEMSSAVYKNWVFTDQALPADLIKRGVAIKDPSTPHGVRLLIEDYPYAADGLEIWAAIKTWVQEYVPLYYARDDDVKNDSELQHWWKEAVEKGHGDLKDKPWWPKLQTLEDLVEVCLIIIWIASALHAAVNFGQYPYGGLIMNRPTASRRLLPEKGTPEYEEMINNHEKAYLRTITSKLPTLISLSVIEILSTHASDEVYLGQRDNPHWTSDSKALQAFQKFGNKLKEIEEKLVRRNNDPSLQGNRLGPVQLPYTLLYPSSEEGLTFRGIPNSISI
Chain of α-glucosidase (P53341 whole entry): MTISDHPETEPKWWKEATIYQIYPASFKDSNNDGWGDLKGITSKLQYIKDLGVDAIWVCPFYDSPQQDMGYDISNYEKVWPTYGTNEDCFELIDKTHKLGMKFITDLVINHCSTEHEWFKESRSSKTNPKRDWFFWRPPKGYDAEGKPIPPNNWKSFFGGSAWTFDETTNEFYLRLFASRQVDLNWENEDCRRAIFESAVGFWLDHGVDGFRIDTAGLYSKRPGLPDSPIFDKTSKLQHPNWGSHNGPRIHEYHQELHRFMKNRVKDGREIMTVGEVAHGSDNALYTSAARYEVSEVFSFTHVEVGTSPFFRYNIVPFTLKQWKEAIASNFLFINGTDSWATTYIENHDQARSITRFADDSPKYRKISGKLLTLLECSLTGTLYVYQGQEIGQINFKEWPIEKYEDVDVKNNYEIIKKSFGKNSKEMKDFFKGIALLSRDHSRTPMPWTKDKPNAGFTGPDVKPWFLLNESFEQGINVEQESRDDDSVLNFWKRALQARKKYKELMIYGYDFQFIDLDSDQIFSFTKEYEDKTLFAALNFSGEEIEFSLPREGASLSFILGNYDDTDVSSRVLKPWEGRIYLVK

As to `CC1=CC[C@@H](C(C)(C)O)CC1` [α-Terpineol], in assay [1], the “Half Maximal Inhibitory Concentration IC50 H2O2” value is “---”. The “nitric oxide radical scavenging activity” value in [2] was “had activity”. Also, the “Half Maximal Inhibitory Concentration IC50 α-Glucosidase” value in assay [3] is “had no activity”. The “lipoxygenase inhibition / anti-inflammatory activity” value in assay [4] is listed as “weak anti-inflammatory activity”. For the same compound, the inhibition in assay [5] is over 20%. Besides, in [6], the IC50 was 8430 µM.

Turning to `O=C(N[C@H](CO)[C@H](O)c1ccc([N+](=O)[O-])cc1)C(Cl)Cl` [Chloramphenicol], in [7], the “Inhibition Zone S. aureus ATCC 6538” value was 10.16 ± 0.70 ^c mm. Moreover, the zone of inhibition at 30 µg/mL in assay [7] (Staphylococcus aureus, ATCC6538) came out at 10.2 ± 0.7 mm; in assay [8] (Staphylococcus aureus, MRSA), 6 mm; in [9] (Escherichia coli, DSM1077) it was 10.8 ± 0.47 mm. In [8], the “Inhibition Zone Methicillin Resistant S. aureus 15” value is on record as 6.00 ± 0.00 ^d mm.

As for `C=C(C)[C@H]1CC=C(C)CC1` [Limonene], in assay [2], the “nitric oxide radical scavenging activity” value is “had activity”. In addition, the “Half Maximal Inhibitory Concentration IC50 α-Glucosidase” value in [3] was 1.18 ± 0.06 ^a mg/mL. For the same compound, in assay [10] (mean ± SD, triplicate), the “Half Maximal Inhibitory Concentration IC50 Acetylcholinesterase” value is given as 0.08 ± 0.00 ^e,f,g,h,i mg/mL. The “Half Maximal Inhibitory Concentration IC50 Lipoxygenase” value in assay [4] (mean ± SD, triplicate) is given as 0.11 ± 0.01 ^f mg/mL.

As for `CC1=CCC2CC1C2(C)C` (stereo not drawn) [α-Pinene], in assay [1], the “Half Maximal Inhibitory Concentration IC50 H2O2” value is “---”. Moreover, in [2], the “nitric oxide radical scavenging activity” value is recorded as “had activity”. Moreover, the “tyrosinase inhibition percentage, major terpenes” value in assay [11] is “lowest ability”. Further, the IC50 in [6] was 147 µM.

Take `CC12CCC(CC1=O)C2(C)C` (centres unmarked) [Camphor]: the “Half Maximal Inhibitory Concentration IC50 H2O2” value in [1] is recorded as “---”. For the same compound, the “Half Maximal Inhibitory Concentration IC50 NO.” value in [2] was “---”. In addition, in assay [12], the “Half Maximal Inhibitory Concentration IC50 Superoxide” value was “---”. For the same compound, the “lipoxygenase inhibition / anti-inflammatory activity” value in assay [4] was “weak anti-inflammatory activity”. The inhibition in assay [5] was over 20%. Besides, the “Inhibition Zone S. aureus ATCC 6538” value is on record as 10.5 ± 1.22 ^c mm in [7] and 10.5 ± 1.22 mm in assay [7] (listed as camphor). Further, the “Inhibition Zone Methicillin Resistant S. aureus 15” value in assay [8] was 11.67 ± 1.02 ^b,c mm. Besides, the “Inhibition Zone E. coli DSM 1077” value in assay [9] is 13.00 ± 0.40 ^b mm.

As to `CC12CCC(CC1)C(C)(C)O2` [1,8-Cineole], the “Half Maximal Inhibitory Concentration IC50 NO.” value in [2] was “---”. Further, the IC50 in assay [10] was 1170 µM; in assay [6], 64.8 µM. The “lipoxygenase inhibition / anti-inflammatory activity” value in [4] is recorded as “weak anti-inflammatory activity”. In [5], the inhibition is over 20%. The “Inhibition Zone S. aureus ATCC 6538” value in [7] is 10.5 ± 0.70 ^c mm; in assay [7] (listed as 1,8-cineole), 10.5 ± 0.70 mm. The “Inhibition Zone Methicillin Resistant S. aureus 15” value in [8] is 12.16 ± 0.47 ^b mm. The “Inhibition Zone E. coli DSM 1077” value in assay [9] is reported as 12.16 ± 0.62 ^b,c mm.

In the case of `CC1(C)C2CCC1(C)C(O)C2` (centres unmarked) [Borneol], in assay [1], the “Half Maximal Inhibitory Concentration IC50 H2O2” value is “---”. The “nitric oxide radical scavenging activity” value in [2] was “had activity”. In [10] (mean ± SD, triplicate, read-out: Half Maximal Inhibitory Concentration IC50 Acetylcholinesterase (converted)), the IC50 is 3110 µM. For the same compound, the inhibition in assay [5] was over 20%.

As usually defined, the inhibition is how much of the control response was suppressed. For orientation: zone of inhibition means the extent of the growth-free halo in a diffusion test.

The values above are taken from PMC8472154 (Molecules, 2021).
